# pEC50, pIC50: −log10 of the molar value.
# Key:
# [1] = tested on: Plasmodium falciparum; test: Antimalarial activity against Plasmodium falciparum RKL9; type: functional, organism-based
# [2] = tested on: Plasmodium falciparum; test: microbe, parasite or virus in culture; settings: 3D7, 48 h
# [3] = tested on: Plasmodium falciparum; type: functional, organism-based; settings: W2
# [4] = tested on: Plasmodium falciparum; test: Antiplasmodial activity against Plasmodium falciparum Dd2 assessed as reduction in parasite growth measured after 72 hrs by SYBR Green 1 staining based assay; type: functional, organism-based; settings: Dd2, 72 h
# [5] = tested on: HepG2; test: Cytotoxicity against human HepG2 cells assessed as reduction in cell viability measured for 48 hrs by SRB assay; type: functional
# [6] = tested on: Plasmodium falciparum; test: microbe, parasite or virus in culture; settings: 3D7
# Description: Antiplasmodial activity against Plasmodium falciparum 3D7
# [7] = tested on: Plasmodium falciparum; test: Antimalarial activity against Plasmodium falciparum 3D7 assessed as reduction in malarial growth measured after 48 hrs by SYBR green dye based analysis; type: functional, organism-based; settings: 3D7, 48 h
# [8] = tested on: Plasmodium falciparum; test: Antimalarial activity against CQ-resistant Plasmodium falciparum Dd2; type: functional, organism-based
# [9] = tested on: Plasmodium falciparum; test: microbe, parasite or virus in culture; settings: 3D7, 72 h
# [10] = tested on: Plasmodium falciparum; test: Antiplasmodial activity against Plasmodium falciparum K1; type: functional, organism-based
# [11] = tested on: HepG2; test: Cytotoxicity against human HepG2 cells assessed as reduction in cell viability measured for 48 hrs by MTT assay; type: functional
# [12] = tested on: Plasmodium falciparum; test: Antiplasmodial activity against multidrug resistant Plasmodium falciparum K1 assessed as reduction in parasite growth by [3H]-hypoxanthine incorporation assay; type: functional, organism-based
smiles,measurement,setting,value
COc1ccc(-c2cc(-c3ccco3)nc(S)n2)cc1OCc1ccccc1,IC50,[1],2 µg/mL
same,IC50,[2],5.1 µg/mL
NCCCCNc1ncnc2c1cnn2-c1ccc(F)cc1,pIC50,[3],4.66
COc1ccc(-c2cc(-c3cc(Cl)sc3Cl)nc(S)n2)cc1OCc1ccccc1,IC50,[1],2.2 µg/mL
same,IC50,[2],4.2 µg/mL
COc1cc(-c2cc(-c3cc(Cl)sc3Cl)nc(S)n2)ccc1OCc1ccccc1,IC50,[1],6.1 µg/mL
same,IC50,[2],9.9 µg/mL
Cc1ccccc1-n1nnnc1C(c1cncnc1)N(Cc1cc(F)cc(C(F)(F)F)c1)C1CC1 (configuration not stated),pEC50,[4],5.92
same,CC50,[5],36 µM
COc1ccc2cc3[n+](cc2c1OCc1cn(-c2ccc(S(=O)(=O)N4CCN(c5ccccn5)CC4)cc2)nn1)CCc1cc2c(cc1-3)OCO2.[Cl-],IC50,[6],1 µg/mL
Cc1cc(C)nc(NS(=O)(=O)c2ccc(-n3cc(COc4ccccc4)nn3)cc2)n1,IC50,[6],> 50 µg/mL
Cc1cc(C)nc(NS(=O)(=O)c2ccc(-n3cc(COc4cc5oc(=O)cc(C)c5cc4Cl)nn3)cc2)n1,pIC50,[7],5.05
O=S(=O)(c1ccc(-n2cc(COc3ccc(I)cc3)nn2)cc1)N1CCN(c2ccccn2)CC1,IC50,[6],12 µg/mL
Cc1nn(-c2ccccc2)c(-n2cncn2)c1-c1cc(-c2cc[nH]c2)nc2nc3ccccc3n12,IC50,[2],0.09 µg/mL
Cc1cc(=O)oc2cc(OCc3cn(-c4ccc(S(=O)(=O)N5CCN(c6ccccn6)CC5)cc4)nn3)c(Cl)cc12,IC50,[6],59.1 µg/mL
COc1ccc(-c2cc(-c3cc(Cl)sc3Cl)nc(N)n2)cc1OCc1ccccc1,IC50,[1],2.4 µg/mL
same,IC50,[2],5.4 µg/mL
Cc1nn(-c2ccccc2)c(-n2ccnc2)c1-c1cc(-c2cccs2)nc2nc3ccccc3n12,IC50,[2],1.75 µg/mL
CCCN(C(C(=O)N(C)c1ccccc1C)c1cccnc1)C1(c2cccc(C(F)(F)F)c2)CC1 (configuration not stated),CC50,[5],> 15 µM
COc1ccc(C2c3c(C)n[nH]c3Oc3nc4oc(=O)c(C#N)c(N)c4c(N)c32)cc1OC (configuration not stated),IC50,[6],0.96 µg/mL
NCCCCNc1ncnc2c1cnn2-c1ccc(Cl)cc1,pIC50,[3],4.88
FC(F)(F)c1cccc(CN(C2CC2)C(c2cccnc2)c2nnnn2C2CC2)c1 (configuration not stated),pEC50,[4],5.52
COc1ccc2nc(/C=C/c3ccncc3)cc(Cl)c2c1,pIC50,[8],5.60
O=c1cc(OCc2cn(-c3ccc(S(=O)(=O)N4CCN(c5ccccn5)CC4)cc3)nn2)c2ccccc2o1,IC50,[6],73.5 µg/mL
O=c1ccc2ccc(OCc3cn(-c4ccc(S(=O)(=O)N5CCN(c6ccccn6)CC5)cc4)nn3)cc2o1,IC50,[6],> 73.5 µg/mL
Cc1ccccc1N(C)C(=O)C(c1cccnc1)N(Cc1cccc(SC(F)(F)F)c1)C1CC1 (configuration not stated),CC50,[5],> 30 µM
COc1ncnc(NS(=O)(=O)c2ccc(N)cc2)c1OC [SULFADOXINE],pIC50,[3],4.82
Cc1ccc(-c2nn(-c3ccccc3)cc2/C=C/c2nnc(-c3ccncc3)o2)cc1,IC50,[1],1.7 µg/mL
same,IC50,[7],0.4 µg/mL
Cc1n[nH]c2c1C(c1ccc(Br)cc1)c1c(nc3oc(=O)c(C#N)c(N)c3c1N)O2 (configuration not stated),IC50,[6],1.85 µg/mL
COc1cc(-c2cc(-c3ccco3)nc(N)n2)ccc1OCc1ccccc1,IC50,[1],10.5 µg/mL
same,IC50,[2],20 µg/mL
CC(C)CC(CN1CCN(c2ncccn2)CC1)Nc1ccnc2cc(Cl)ccc12 (configuration not stated),pIC50,[9],6.34
same,pIC50,[10],6.45
O=C(N/N=C/c1cn(-c2ccccc2)nn1)c1ccncc1,pIC50,[6],4.64
O=C(N/N=C/c1cn(-c2ccc(Cl)cc2)nn1)c1ccncc1,pIC50,[6],4.84
COc1ccc(-n2cc(/C=N/NC(=O)c3ccncc3)nn2)cc1,pIC50,[6],4.63
COc1ccc2nc(/C=C/c3ccncc3)cc(N3CCCC3)c2c1,pIC50,[8],6.44
O=S(=O)(NCCCCNc1ncnc2c1cnn2-c1ccc(Cl)cc1)c1ccc(F)cc1,pIC50,[3],4.36
Cc1ccccc1N(C)C(=O)C(c1cncnc1)N(Cc1cccc(SC(F)(F)F)c1)C1CC1 (configuration not stated),CC50,[11],> 30 µM
same,pEC50,[12],6.00
O=S(=O)(c1ccc(-n2cc(COc3ccc(Br)cc3)nn2)cc1)N1CCN(c2ccccn2)CC1,IC50,[6],46 µg/mL
C(=C\c1cn(-c2ccccc2)nc1-c1ccccc1)/c1nnc(-c2ccncc2)o1,IC50,[1],0.8 µg/mL
same,IC50,[7],0.5 µg/mL
O=[N+]([O-])c1ccc(OCc2cn(-c3ccc(S(=O)(=O)N4CCN(c5ccccn5)CC4)cc3)nn2)cc1,IC50,[6],> 50 µg/mL
Cc1n[nH]c2c1C(c1ccc(Cl)cc1)c1c(nc3oc(=O)c(C#N)c(N)c3c1N)O2 (configuration not stated),IC50,[6],0.84 µg/mL
Cc1cc(C)nc(NS(=O)(=O)c2ccc(-n3cc(COc4ccc5c(C)cc(=O)oc5c4)nn3)cc2)n1,pIC50,[7],4.69
Cc1ccc(NS(=O)(=O)c2ccc(Nc3cc(C)nc4nc(C(F)(F)F)nn34)cc2)cc1,pIC50,[9],7.52
Cc1nn(-c2ccccc2)c(-n2ccnc2)c1-c1cc(-c2ccc(F)cc2)nc2nc3ccccc3n12,IC50,[2],0.03 µg/mL
COc1ccc2nc(/C=C/c3ccncc3)cc(NC3CCCCC3)c2c1,pIC50,[8],6.57
Cc1ccccc1N(C)C(=O)C(c1cccnc1)N(Cc1cccc(OC(F)(F)F)c1)C1CC1 (configuration not stated),CC50,[5],> 30 µM
Cc1ccccc1N(C)C(=O)C(c1cccnc1)N(Cc1cccc(C(F)(F)F)c1)C1CC1 (configuration not stated),CC50,[5],> 20 µM
Cc1cc(Nc2ccc(S(=O)(=O)Nc3ccc(F)cc3)cc2)n2nc(C(F)(F)F)nc2n1,pIC50,[9],7.10
Cc1ccccc1N(C)C(=O)C(c1cccnc1)N(Cc1cc(C(F)(F)F)ccc1F)C1CC1 (configuration not stated),CC50,[5],> 30 µM
COc1cc(-c2cc(-c3ccco3)nc(S)n2)ccc1OCc1ccccc1,IC50,[1],5.4 µg/mL
same,IC50,[2],12.2 µg/mL
Cc1cc(C)nc(NS(=O)(=O)c2ccc(-n3cc(COc4ccc5c(-c6ccccc6)c(C)c(=O)oc5c4)nn3)cc2)n1,pIC50,[7],< 4.17
Cc1cc(C)nc(NS(=O)(=O)c2ccc(-n3cc(COc4ccc5ccc(=O)oc5c4)nn3)cc2)n1,pIC50,[7],< 4.10
COc1ccc(-c2cc(-c3ccco3)nc(N)n2)cc1OCc1ccccc1,IC50,[1],3.2 µg/mL
same,IC50,[2],4.4 µg/mL
Cc1n[nH]c2c1C(c1ccc(F)cc1)c1c(nc3oc(=O)c(C#N)c(N)c3c1N)O2 (configuration not stated),IC50,[6],1.48 µg/mL
Cc1ccc(-n2ncc3c(NCCCCNS(=O)(=O)c4ccc(C)cc4)ncnc32)cc1,pIC50,[3],4.91
Cc1ccc(-n2ncc3c(NCCCCN)ncnc32)cc1,pIC50,[3],4.74
O=C(C(c1cccnc1)N(Cc1cccc(C(F)(F)F)c1)C1CC1)N1CCCCC1 (configuration not stated),CC50,[5],> 20 µM
CC/C=C\C/C=C\C/C=C\C/C=C\C/C=C\C/C=C\CCC(=O)O [DOCONEXENT],pIC50,[6],8.40
COc1cc(-c2cc(-c3cc(Cl)sc3Cl)nc(N)n2)ccc1OCc1ccccc1,IC50,[1],2.9 µg/mL
same,IC50,[2],6.3 µg/mL
COc1ccc2cc3[n+](cc2c1OCc1cn(-c2ccc(S(=O)(=O)Nc4nc(C)cc(C)n4)cc2)nn1)CCc1cc2c(cc1-3)OCO2.[Cl-],IC50,[7],4 µg/mL
Cc1ccccc1N(C)C(=O)C(c1cncnc1)N(Cc1cccc(OC(F)(F)F)c1)C1CC1 (configuration not stated),CC50,[11],> 30 µM
same,pEC50,[12],6.23
CCc1ccccc1N(C)C(=O)C(c1cccnc1)N(Cc1cccc(C(F)(F)F)c1)C1CC1 (configuration not stated),CC50,[5],> 30 µM
Clc1ccc2c(NCCN3CCN(c4ncccn4)CC3)ccnc2c1,pIC50,[9],6.97
same,pIC50,[10],6.56
Cc1ccc(S(=O)(=O)NCCCCNc2ncnc3c2cnn3-c2ccc(F)cc2)cc1,pIC50,[3],5.29
Cc1nn(-c2ccccc2)c(-n2cncn2)c1-c1cc(-c2ccc(F)cc2)nc2nc3ccccc3n12,IC50,[2],0.04 µg/mL
COc1ccc2nc(/C=C/c3ccncc3)ccc2c1,pIC50,[8],< 5.00
O=S(=O)(c1ccc(-n2cc(COc3ccccc3)nn2)cc1)N1CCN(c2ccccn2)CC1,IC50,[6],48.5 µg/mL
C[C@H]1[C@H](OC(=O)CCC(=O)O)O[C@@H]2O[C@@]3(C)CC[C@H]4[C@H](C)CC[C@@H]1[C@@]24OO3 [ARTESUNATE],pIC50,[9],6.00
CCc1ccccc1N(C)C(=O)C(c1cncnc1)N(Cc1cccc(C(F)(F)F)c1)C1CC1 (configuration not stated),CC50,[11],> 30 µM
same,pEC50,[12],6.24
COc1ccc(-n2cc(-c3cncc4ccccc34)nn2)cn1,pIC50,[6],4.21
CN(C(=O)C(c1cncnc1)N(Cc1cccc(C(F)(F)F)c1)C1CC1)c1ccccc1 (configuration not stated),CC50,[11],> 30 µM
same,pEC50,[12],5.70
O=C(N/N=C/c1cnn(-c2ccccc2)n1)c1ccncc1,pIC50,[6],4.70
Cc1nn(-c2ccccc2)c(-n2ccnc2)c1-c1cc(-c2cc[nH]c2)nc2nc3ccccc3n12,IC50,[2],0.07 µg/mL
Cc1ccc(-c2cc(-c3c(C)nn(-c4ccccc4)c3-n3ccnc3)n3c(n2)nc2ccccc23)cc1,IC50,[2],1.84 µg/mL
Cc1cc(=O)oc2cc(OCc3cn(-c4ccc(S(=O)(=O)N5CCN(c6ccccn6)CC5)cc4)nn3)ccc12,IC50,[6],> 71.7 µg/mL
O=S(=O)(c1ccc(-n2cc(COc3ccc(Cl)cc3)nn2)cc1)N1CCN(c2ccccn2)CC1,IC50,[6],> 50 µg/mL
CCCN(C(c1cncnc1)c1nnnn1-c1ccccc1C)C1(c2cccc(C(F)(F)F)c2)CC1 (configuration not stated),CC50,[5],13 µM
O=S(=O)(c1ccc(-n2cc(COc3ccc(F)cc3)nn2)cc1)N1CCN(c2ccccn2)CC1,IC50,[6],> 50 µg/mL
COc1ccc2nc(/C=C/c3ccncc3)cc(NCCN(C)C)c2c1,pIC50,[8],7.52
COc1ccccc1C(=O)/C=C/c1ccccn1,IC50,[6],0.48 µg/mL
